Experimental data from paper PMC9885530, “Identification of Natural Products Inhibiting SARS-CoV-2 by Targeting Viral Proteases: A Combined in Silico and in Vitro Approach” (Journal of Natural Products, 2023).
Values joined by “and” are separate entries in the source; they are usually repeats but may differ in a detail not shown here. Identical values can stand only once. Like-named read-outs stand apart in the source and are kept apart here.

How the values were obtained:
SARS-CoV-2 PLpro [1] = biological target: T1, SARS-CoV-2 PLpro (Severe acute respiratory syndrome coronavirus 2, UniProt P0DTD1); test: biochemical; set-up: papain-like protease (PL^pro; domain of nsp3); purchased Anaspec (Fremont, USA) AS-72263; details: for inhibition at 20 µM: read-out: SARS-CoV-2 PLpro inhibition % enzyme inhibition (20 µM); for SARS-CoV-2 PLpro inhibition % enzyme inhibition (20 µM): commercial Anaspec assay kit
SARS-CoV-2 PLpro [2] = biological target: T1, SARS-CoV-2 PLpro; test: PL^pro fluorogenic peptide cleavage assay (substrate Z-RLRGG-AMC); type: biochemical; set-up: papain-like protease (PL^pro; domain of nsp3); His; purchased BPS Biosciences BPS-100735-1; details: for inhibition at 20 µM: read-out: SARS-CoV-2 PL^pro enzyme inhibition (%) 20 μM; for inhibition at 100 µM: read-out: SARS-CoV-2 PL^pro enzyme inhibition (%) 100 μM
SARS-CoV-2 [3] = test: Antiviral assay in Calu-3 cells (spike staining); type: cell-based; details: for antiviral activity against SARS-CoV-2 (in words): two different cell lines (Caco-2, Calu-3)
SARS-CoV-2 [4] = test: Antiviral assay in Caco-2 cells; type: cell-based; details: Severe acute respiratory syndrome coronavirus 2, Caco-2, read-out: Anti SARS-CoV-2 activity Caco-2 IC50 (µM)
[5] = Cytotoxicity in Calu-3 cells; details: human
[6] = Cytotoxicity in Caco-2 cells; details: human
SARS-CoV-2 M^pro = SARS-CoV-2 M^pro (Severe acute respiratory syndrome coronavirus 2, UniProt P0DTD1); test: biochemical; type: biochemical; details: for inhibition at 20 µM: read-out: SARS-CoV-2 M^pro enzyme inhibition (%) 20 μM; for inhibition at 100 µM: 100 μM compound, read-out: SARS-CoV-2 M^pro enzyme inhibition (%) 100 μM
M^pro [7] = biological target: T2, M^pro (Severe acute respiratory syndrome coronavirus 2, UniProt P0DTD1); type: binding; details: 2 μM protein, 50 μM ligand
M^pro [8] = biological target: T2, M^pro; test: Competitive 1H CPMG relaxation dispersion NMR with compound 4 as reporter ligand; type: binding, SARS-CoV-2; details: competition with compound 4
in vitro = details: human
[9] = Severe acute respiratory syndrome coronavirus 2, Calu-3, 48 h, read-out: Anti-SARS-CoV-2 activity IC50 (μM)
[10] = 20 μM compound, buffer with 5 mM DTT, for values marked a the relative standard deviation of 6% applies
[11] = Severe acute respiratory syndrome coronavirus 2, Calu-3 cells, MOI 0.01, 48 h postinfection, read-out: Anti-SARS-CoV-2 activity IC50
[12] = read-out: SARS-CoV-2 M^pro IC50, buffer with 5 mM DTT

| Structure (SMILES) | inhibition at 20 µM (SARS-CoV-2 PLpro [1]) [%] | inhibition at 20 µM (SARS-CoV-2 PLpro [2]) [%] | inhibition at 100 µM (SARS-CoV-2 PLpro [2]) [%] | inhibition at 20 µM (SARS-CoV-2 M^pro; [10]) [%] | inhibition at 100 µM (SARS-CoV-2 M^pro; buffer with 5 mM DTT) [%] | other results |
| --- | --- | --- | --- | --- | --- | --- |
| Cn1cc(CNC(=O)c2cc([N+](=O)[O-])ccc2Cl)cn1 [Compound 38] | 26.1 ± 15.2 | 3 ± 0.7 | 6.4 ± 4.6 |  |  |  |
| COc1ccc(CNC(=O)c2cn(CCC(C)C)c(=O)c3ccccc23)cc1OC [Compound 48] | 32 ± 4.2 | 8.2 ± 2.3 | 0.3 ± 0.5 |  |  |  |
| C=CCc1ccc(O)c(-c2cc(CC=C)ccc2O)c1 [Compound 36, magnolol] | 58.2 ± 11.5 | 4.3 ± 6.6 |  |  |  | IC50 (SARS-CoV-2 [3]; [9]): 26.8 µM; antiviral activity against SARS-CoV-2 (in words) (SARS-CoV-2 [3]): moderately acting antiviral compounds; IC50 (SARS-CoV-2 [4]): 17.7 µM; CC50 [5]: > 20 µM; CC50 [6]: 47.3 µM |
| CC(C)(O)CCc1c(-c2ccc(O)cc2O)oc2c3c(cc(O)c2c1=O)OC(C)(C)C=C3 [Compound 24, morusinol] |  |  |  | 23.1 ± 2.8 | 71.2 ± 1.9 |  |
| COc1cc(O)c(C(=O)/C=C/c2ccccc2)c(O)c1[C@H]1C[C@H](c2ccccc2)Oc2c(OC)c(O)cc(OC)c21 [Compound 26, sarcandrone B] |  |  |  | 1.2 ± 2.5 | 7.5 ± 2.5 |  |
| COCCN1C(=O)C(O)=C(C(=O)c2ccc(OC)c(C)c2)C1c1ccc(O)cc1 (stereo not shown) [Compound 39] | 26 ± 34.7 | 10 ± 5.4 | 42 ± 1.3 |  |  |  |
| COc1cc(CC(CO)Oc2ccc(CCCO)cc2OC)ccc1O (stereo not shown) [Compound 47] | -55.8 ± 32.4 | 8.8 ± 5.6 | 0.5 ± 0.8 |  |  |  |
| COc1ccc2c(C)c(CC(=O)Nc3c(C)cccc3C(C)C)c(=O)oc2c1OC [Compound 45] | -2.6 ± 36.1 | 9 ± 4.3 | 2.6 ± 0.1 |  |  |  |
| CC1=C[C@H](c2c(O)ccc([C@@H]3CC(=O)c4c(O)cc(O)cc4O3)c2O)[C@@H](C(=O)c2ccc(O)cc2O)[C@H](c2ccc(O)cc2O)C1 [Compound 16, kuwanon L] |  |  |  | 70.4 | 97.6 ± 2.5 | IC50 (SARS-CoV-2 M^pro; read-out: SARS-CoV-2 M^pro IC50): 5.25 µM and 5.3 µM; STD signals (M^pro [7]): exhibited STD signals; CC50 [5]: 97.7 µM |
| COc1cc([C@@H]2Oc3c(O)cc([C@H]4Oc5cc(O)cc(O)c5C(=O)[C@@H]4O)cc3[C@H]2CO)ccc1O [Compound 33, silicristin] |  | 3.4 ± 7.8 | 19.8 ± 2 |  |  |  |
| CCC(CC)COC(=O)[C@H](C)N[P@](=O)(OC[C@H]1O[C@@](C#N)(c2ccc3c(N)ncnn23)[C@H](O)[C@@H]1O)Oc1ccccc1 [Compound 1, remdesivir, reference compound] |  |  |  |  |  | IC50 (SARS-CoV-2 [3]; [11]): 0.00125 µM; CC50 [5]: > 0.1 µM |
| C=CCc1ccc(O)c(-c2ccc(O)c(CC=C)c2)c1 [Compound 35, honokiol] | 80.6 ± 9.9 | 4.9 ± 4.6 | 5.3 ± 3.2 |  |  | IC50 (SARS-CoV-2 [3]; [9]): 28.4 µM; antiviral activity against SARS-CoV-2 (in words) (SARS-CoV-2 [3]): moderately acting antiviral compounds; IC50 (SARS-CoV-2 [4]): 16.2 µM; CC50 [5]: > 20 µM; CC50 [6]: 91.2 µM; SARS-CoV-2 PLpro inhibition % enzyme inhibition (20 µM) (SARS-CoV-2 PLpro [1]): significant enzyme inhibition |
| CC(C)=CC[C@@]12Oc3cc(O)c([C@H]4C=C(C)C[C@H](c5ccc(O)cc5O)[C@H]4C(=O)c4ccc(O)cc4O)c(O)c3C(=O)[C@]1(O)Oc1cc(O)ccc12 [Compound 13, sanggenon O] |  |  |  |  |  | IC50 (SARS-CoV-2 M^pro; [12]): 6.7 µM; IC50 (SARS-CoV-2 [3]; [11]): 8 µM; STD signals (M^pro [7]): no STD signals were detected; displacement of reporter ligand 4 from M^pro (CPMG-RD) (M^pro [8]): did not significantly displace 4; CC50 [5]: 24.9 µM |
| C=C(C)[C@H](CC=C(C)C)Cc1c(O)cc(OC)c2c1O[C@H](c1ccc(O)cc1O)CC2=O [Compound 21, kurarinone] |  |  |  | 30.2 | 99.2 ± 2.5 |  |
| CC(C)=CCC/C(C)=C/Cc1c(O)ccc([C@@H]2CC(=O)c3c(O)cc(O)cc3O2)c1O [Compound 11, sanggenol A] |  |  |  | 31.9 | 98.3 ± 2.4 |  |
| CC(C)=CCc1c(-c2ccc(O)cc2O)oc2c3c(cc(O)c2c1=O)OC(C)(C)C=C3 [Compound 23, morusin] |  |  |  |  |  | IC50 (SARS-CoV-2 M^pro; [12]): 33.5 µM; IC50 (SARS-CoV-2 [3]; [11]): 24.9 µM; CC50 (in vitro): 25.2 µM |
| Cn1c(=O)c2c(nc(SCC(=O)Nc3ccc4c(c3)OCO4)n2Cc2cccc(Cl)c2)n(C)c1=O [Compound 29] |  |  |  |  | 7.3 ± 10.2 |  |
| COc1ccc(S(=O)(=O)NCc2ccc(C(=O)NCc3ccccc3)cc2)cc1 [Compound 44] | 18.5 ± 16.6 | 6.4 ± 4.2 | 1.5 ± 1.2 |  |  |  |

| Structure (SMILES) | inhibition at 20 µM (SARS-CoV-2 PLpro [1]) [%] | inhibition at 20 µM (SARS-CoV-2 PLpro [2]) [%] | inhibition at 100 µM (SARS-CoV-2 PLpro [2]) [%] | inhibition at 20 µM (SARS-CoV-2 M^pro; [10]) [%] | inhibition at 100 µM (SARS-CoV-2 M^pro; buffer with 5 mM DTT) [%] | other results |
| --- | --- | --- | --- | --- | --- | --- |
| COc1ccc(C(=O)COc2ccc3c(c2)O/C(=C\c2cc(OC)ccc2OC)C3=O)cc1 [Compound 43] | 13.5 ± 25.5 | 10 ± 5.4 | 14.3 ± 3.4 |  |  |  |
| CN1[C@@H](CC(=O)c2ccccc2)CCC[C@H]1C[C@H](O)c1ccccc1 [Compound 32, lobelin] | 26.6 ± 11 | 3.7 ± 2.6 |  |  |  |  |
| COc1cc2c(cc1OC)/C(=C/C(=O)c1ccc(CSC)cc1)NCC2 [Compound 41] |  | 9.6 ± 5.8 | 14.6 ± 13.1 |  |  |  |
| O=C(CC(c1ccccc1)c1ccccc1)NCCCc1ccccc1 [Compound 40] | 41.5 ± 16.5 | 1.6 ± 8.8 | 5 ± 2.6 |  |  |  |
| COc1cc(C2Oc3cc([C@H]4Oc5cc(O)cc(O)c5C(=O)[C@@H]4O)ccc3OC2CO)ccc1O (stereo partly shown) [Compound 34, silibinin] | 50.3 ± 14.3 | 6.5 ± 3.6 |  |  |  | IC50 (SARS-CoV-2 [3]; [9]): > 100 µM; CC50 (in vitro): > 100 µM |
| O=C(/C=C/c1ccc(O)c(O)c1)OC1CC(OC(=O)/C=C/c2ccc(O)c(O)c2)(C(=O)O)CC(O)C1O (stereo not shown) [Compound 19, cynarine] |  |  |  |  | 9.8 ± 13.3 |  |
| CC(C)=CCc1cc(-c2coc3cc(O)ccc3c2=O)ccc1O [Compound 20, neobavaisoflavone] |  |  |  |  |  | inhibition at 20 µM (SARS-CoV-2 M^pro): 18% |
| Oc1ccc([C@@H]2c3c(O)cc(O)cc3[C@@H]3c4c(O)cc(O)cc4[C@H]2[C@H]3c2ccc(O)cc2)cc1 [Compound 25, ampelopsin F] |  |  |  | 18.9 ± 2.2 | 37.5 ± 0.8 |  |
| CC(C)=CC[C@]12Oc3cc(O)c([C@H]4C=C(C)C[C@H](c5ccc(O)cc5O)[C@H]4C(=O)c4ccc(O)cc4O)c(O)c3C(=O)[C@@]1(O)Oc1cc(O)ccc12 [Compound 12, sanggenon C] |  |  |  |  |  | IC50 (SARS-CoV-2 M^pro; [12]): 7.24 µM and 7.2 µM; IC50 (SARS-CoV-2 [3]; [11]): 4.6 µM; STD signals (M^pro [7]): no STD signals were detected; displacement of reporter ligand 4 from M^pro (CPMG-RD) (M^pro [8]): displacement from the binding site; CC50 [5]: 23.6 µM |
| O=C(/C=C/c1ccc(O)c(O)c1)O[C@@H](C(=O)O)[C@@H](OC(=O)/C=C/c1ccc(O)c(O)c1)C(=O)O [Compound 18, chicoric acid] |  |  |  | 0.7 | 11.5 ± 0.6 |  |
| O=C(CCCN1C(=O)c2ccccc2N2C(=O)c3ccccc3C12)NCCc1cnc[nH]1 (stereo not shown) [Compound 28] |  |  |  | 14.1 ± 5.1 | 59.7 ± 1 |  |
| CC(C)(O)[C@H](O)COc1c2ccoc2cc2oc(=O)ccc12 [Compound 37, oxypeucedanin hydrate] | 97.5 ± 14.6 |  |  |  |  | IC50 (SARS-CoV-2 [3]; [9]): > 100 µM; CC50 (in vitro): > 100 µM; SARS-CoV-2 PLpro inhibition % enzyme inhibition (20 µM) (SARS-CoV-2 PLpro [1]): significant enzyme inhibition |
| CC(C)=CCC12Oc3cc(O)c([C@@H]4C=C(C)C[C@H](c5ccc(O)cc5O)[C@H]4C(=O)c4ccc(O)cc4O)c(O)c3C(=O)C1(O)Oc1cc(O)ccc12 (stereo partly shown) [Compound 14, sanggenon D] |  |  |  |  |  | IC50 (SARS-CoV-2 M^pro; SARS-CoV-2 M^pro IC50 (μM), buffer with 5 mM DTT): 13.8 µM and 13.9 µM; IC50 (SARS-CoV-2 [3]; [11]): 18.5 µM; STD signals (M^pro [7]): exhibited STD signals; CC50 [5]: 46.2 µM |
| CC(C)=CCc1c(-c2ccc(O)c3c2OC(C)(C)C=C3)oc2cc(O)cc(O)c2c1=O [Compound 22, kuwanon A] |  |  |  | 45.5 ± 7.1 | 79.2 ± 2.4 | IC50 (SARS-CoV-2 M^pro; [12]): 35.2 µM; IC50 (SARS-CoV-2 [3]; [11]): 35.6 µM; CC50 (in vitro): 47.7 µM |
| COc1cc(CNC(=O)CCCC/C=C/C(C)C)ccc1O [Compound 31, trans-capsaicin] | 32.4 ± 13.7 | 5.6 ± 9.7 | 5.3 ± 0.1 |  |  |  |
| O=C(CCc1ccccc1)C[C@H]1C[C@H](c2ccccc2)c2c(cc(/C=C/c3ccccc3)oc2=O)O1 [Compound 17, katsumadain A] |  |  |  | 5 | 47.7 ± 2.8 |  |
| COc1ccc(CNC(=O)c2ccc(Cn3c(=O)c(C)nc4ccccc43)cc2)cc1 [Compound 46] |  | 12.7 ± 6.9 | 14 ± 3.4 |  |  |  |
| COc1ccc(C(=O)N(CCN(Cc2ccccc2)C(=O)c2ccc(OC)cc2)Cc2ccccc2)cc1 [Compound 27] |  |  |  | 4.8 ± 4 | 28.2 ± 8.3 |  |
